The supplement of paper PMC11451515

Tested on: SEM cells
Experiment: cell viability relative to DMSO control; higher = less cytotoxic
Settings: 48 h
How it was run: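 Viability values are per-plate percentages of DMSO wells, with background from cell-free wells. Library compounds in DMSO were pin-dosed, in an 11-point threefold series from 47 μM to 0.79 nM, onto NOMO1 or SEM (500 cells/well) or P12-Ichikawa (1000 cells/well) leukemia cells in 1536-well plates (5 μl). Those cells had been adapted for at least four passages in each medium, and CellTiter-Glo One luminescence was read after 48 h at 37°C.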

[1] = HPLM + 10% dialyzed FBS, 0.000781 µM
[2] = HPLM + 10% dialyzed FBS, 0.00234 µM
[3] = HPLM + 10% dialyzed FBS, 0.00702 µM
[4] = HPLM + 10% dialyzed FBS, 0.0211 µM
[5] = HPLM + 10% dialyzed FBS, 0.0632 µM
[6] = HPLM + 10% dialyzed FBS, 0.19 µM
[7] = HPLM + 10% dialyzed FBS, 0.569 µM
[8] = HPLM + 10% dialyzed FBS, 1.71 µM
[9] = HPLM + 10% dialyzed FBS, 5.12 µM
[10] = HPLM + 10% dialyzed FBS, 15.4 µM
[11] = HPLM + 10% dialyzed FBS, 46.1 µM
[12] = RPMI 5 mM glucose + 10% FBS, 0.000781 µM
[13] = RPMI 5 mM glucose + 10% FBS, 0.00234 µM
[14] = RPMI 5 mM glucose + 10% FBS, 0.00702 µM
[15] = RPMI 5 mM glucose + 10% FBS, 0.0211 µM
[16] = RPMI 5 mM glucose + 10% FBS, 0.0632 µM
[17] = RPMI 5 mM glucose + 10% FBS, 0.19 µM
[18] = RPMI 5 mM glucose + 10% FBS, 0.569 µM
[19] = RPMI 5 mM glucose + 10% FBS, 1.71 µM
[20] = RPMI 5 mM glucose + 10% FBS, 5.12 µM
[21] = RPMI 5 mM glucose + 10% FBS, 15.4 µM
[22] = RPMI 5 mM glucose + 10% FBS, 46.1 µM
[23] = RPMI 5 mM glucose + 10% dialyzed FBS, 0.000781 µM
[24] = RPMI 5 mM glucose + 10% dialyzed FBS, 0.00234 µM
[25] = RPMI 5 mM glucose + 10% dialyzed FBS, 0.00702 µM
[26] = RPMI 5 mM glucose + 10% dialyzed FBS, 0.0211 µM
[27] = RPMI 5 mM glucose + 10% dialyzed FBS, 0.0632 µM
[28] = RPMI 5 mM glucose + 10% dialyzed FBS, 0.19 µM
[29] = RPMI 5 mM glucose + 10% dialyzed FBS, 0.569 µM
[30] = RPMI 5 mM glucose + 10% dialyzed FBS, 1.71 µM
[31] = RPMI 5 mM glucose + 10% dialyzed FBS, 5.12 µM
[32] = RPMI 5 mM glucose + 10% dialyzed FBS, 15.4 µM
[33] = RPMI 5 mM glucose + 10% dialyzed FBS, 46.1 µM

Row | SMILES | cell viability [1] | cell viability [2] | cell viability [3] | cell viability [4] | cell viability [5] | cell viability [6] | cell viability [7] | cell viability [8] | cell viability [9] | cell viability [10] | cell viability [11] | cell viability [12] | cell viability [13] | cell viability [14] | cell viability [15] | cell viability [16] | cell viability [17] | cell viability [18] | cell viability [19] | cell viability [20] | cell viability [21] | cell viability [22] | cell viability [23] | cell viability [24] | cell viability [25] | cell viability [26] | cell viability [27] | cell viability [28] | cell viability [29] | cell viability [30] | cell viability [31] | cell viability [32] | cell viability [33]
1 | CC(C)c1nc(CN(C)C(=O)N[C@H](C(=O)N[C@@H](Cc2ccccc2)C[C@H](O)[C@H](Cc2ccccc2)NC(=O)OCc2cncs2)C(C)C)cs1 | 84.8% | 90.5% | 101% | 87.5% | 96.2% | 91.6% | 85% | 85.1% | 81.5% | 62.6% | 74.4% | 94.9% | 103% | 110% | 103% | 90.7% | 89.7% | 84.8% | 88.8% | 87.3% | 80.1% | 87.5% | 104% | 113% | 98.4% | 85% | 106% | 86.1% | 94.8% | 105% | 92.4% | 88.1% | 99.8%
2 | C[C@](Cc1c[nH]c2ccccc12)(NC(=O)OC1C2CC3CC(C2)CC1C3)C(=O)NC[C@H](NC(=O)CCC(=O)O)c1ccccc1 (stereo partly drawn) | 88.1% | 87.3% | 112% | 106% | 124% | 129% | 121% | 123% | 116% | 126% | 120% | 96.8% | 82.8% | 110% | 121% | 105% | 149% | 148% | 135% | 128% | 125% | 132% | 113% | 91% | 121% | 126% | 118% | 137% | 134% | 142% | 136% | 168% | 123%
3 | C[C@]12CCC(=O)C=C1CC[C@@H]1[C@@H]2[C@@H](O)C[C@@]2(C)[C@H]1CC[C@]2(O)C(=O)CO | 108% | 96.8% | 98.1% | 118% | 104% | 107% | 121% | 121% | 108% | 87.6% | 99.2% | 89.7% | 82.7% | 99.3% | 91.4% | 92.1% | 102% | 94.9% | 97% | 86.1% | 68.2% | 73.4% | 99.2% | 95% | 114% | 102% | 102% | 112% | 96.7% | 94.2% | 92.5% | 70% | 62.7%
4 | Nc1ncnc2c1ncn2[C@@H]1O[C@@H](CO)[C@H](O)[C@@H]1O | 93.8% | 90.1% | 111% | 119% | 124% | 117% | 109% | 109% | 115% | 118% | 62.4% |  |  |  |  |  |  |  |  |  |  |  | 106% | 105% | 116% | 112% | 130% | 144% | 121% | 123% | 123% | 84.9% | 50.2%
5 | Cc1nn(Cc2ccccc2Cl)c(C)c1CN(C)CC(O)COc1ccc(Cl)cc1 (stereo not drawn) | 95.7% | 98.1% | 103% | 119% | 100% | 102% | 109% | 104% | 105% | 41.8% | 46.9% | 100% | 109% | 93% | 112% | 110% | 116% | 107% | 114% | 105% | 41.1% | 41.4% | 109% | 91.8% | 107% | 103% | 113% | 89.9% | 97.2% | 101% | 95.8% | 39.2% | 38.3%
6 | COC(=O)C[C@](O)(CCCC(C)(C)O)C(=O)O[C@@H]1C(OC)=CC23CCCN2CCc2cc4c(cc2[C@H]13)OCO4 (stereo partly drawn) | 106% | 103% | 108% | 108% | 105% | 120% | 119% | 109% | 94.5% | 92.5% | 102% | 98.4% | 101% | 106% | 98.1% | 111% | 111% | 95.9% | 89.6% | 84.3% | 96.9% | 93.3% | 104% | 100% | 104% | 106% | 97.2% | 103% | 105% | 97.5% | 99.7% | 99.9% | 102%
7 | OC(c1cc(C(F)(F)F)nc2c(C(F)(F)F)cccc12)C1CCCCN1 (stereo not drawn) | 103% | 115% | 109% | 116% | 117% | 139% | 91.8% | 54.7% | 126% | 132% | 7.71% | 117% | 118% | 131% | 149% | 133% | 138% | 93.9% | 63.4% | 132% | 114% | 9.68% | 117% | 130% | 122% | 136% | 135% | 129% | 81.2% | 47.8% | 137% | 130% | 10.3%
8 | CC(C)c1ccc2c(c1)c(SC(C)(C)C)c(CC(C)(C)C(=O)[O-])n2Cc1ccc(Cl)cc1 | 104% | 96.6% | 107% | 100% | 106% | 95.3% | 103% | 101% | 106% | 107% | 83.2% | 101% | 84% | 109% | 99.7% | 96.9% | 102% | 89.9% | 101% | 93.5% | 89.5% | 75% | 98.9% | 103% | 106% | 107% | 97.6% | 104% | 91.6% | 88.5% | 92.5% | 97.5% | 89.9%
